Here are results for one compound from US20030073850A1, “4-Imidazole derivatives of benzyl and restricted benzyl sulfonamides, sulfamides, ureas, carbamates, and amides and their use” (priority 1998, published 2003).

Series [1] deals with anesthetized dogs. The series is described as follows: Urethral pressure profile in anesthetized dogs. It counts as in vivo, dog. Conditions: increasing iv doses, FIG. 1. Here is the method: Dogs instrumented and anesthetized as decribed above were placed in left lateral recumbency and a dual pressure sensor catheter (SPC-771, Millar Instruments, Houston, Tex.) was inserted into the urethra and advanced into the bladder. The proximal pressure sensor was interfaced to a M12 computerized data acquisition system for the measurement of lower urinary tract pressures. At a resting intravesical pressure of approximately 5 cm of H2O, urethral pressure was measured from the sensor as the catheter was withdrawn using a modified syringe pump (Model 22, Harvard Apparatus, South Natick, Mass.) at its maximal rate of 0.83 mm/sec. Measurement from the proximal sensor allowed easy reinsertion as the distal 5 cm of the catheter remains in the urethra after the total profile has been obtained. Three resting urethral pressure profiles were obtained at 5 minute intervals before dosing, then a single profile was initiated 30 sec after each increasing iv dose during the time corresponding to the maximum arterial pressure effects of that dose. The increase in arterial pressure seen after each agonist dose was allowed to return to baseline before the next dose was given.

The compound `CS(=O)(=O)Nc1cccc2c1CCCC2c1c[nH]cn1.Cl` (centres unmarked) [Example 8, N-[5-(1H-imidazol-4-yl)-5,6,7,8-tetrahydro-1-naphthalenyl]methanesulfonamide, Hydrochloride] showed a melting point of 113 to 114 °C. The urethral pressure profile result in series [1] was “corresponding increases in the urethral pressure”.

Broadly, the melting point is the temperature, or range, at which the solid turns liquid.
